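Values below derive from 48-hour exposures of cells grown in 96-well plates, with endpoints linearly interpolated between the two concentrations bracketing the appropriate inhibition level. Abbreviation: GI50, concentration required for 50% inhibition of growth.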 Calls of active or inactive are those of the source. Rule as the data show it: active = GI50 up to about 1.1 µM and inactive = higher. Starred links: 1 amine or outer side, 2 acyl side, 3 side chain; linkers in the order of their positions; H or OH if unused. Residues, ends and D or L forms follow the SMILES beside them. *: point of attachment. γGlu = O=C(O)[CH](CCC(=O)[*:2])N[*:1]; NHOH = ON*
Assays:
Assay in all cases: DTP human tumour cell line panel, 48 h
[1] = system: A498
[2] = system: EKVX
[3] = system: HOP-62
[4] = system: HOP-92
[5] = system: HT-29
[6] = system: IGROV-1
[7] = system: MCF7
[8] = system: MOLT-4
[9] = system: NCI-H23
[10] = system: OVCAR-3
[11] = system: OVCAR-5
[12] = system: OVCAR-8
[13] = system: RXF 393
[14] = system: SK-MEL-2
[15] = system: SNB-19
[16] = system: SNB-75
[17] = system: T47D
[18] = system: UACC-257
[19] = system: UACC-62
[20] = system: UO-31

| Compound | GI50 [1] | GI50 [2] | GI50 [3] | GI50 [4] | GI50 [5] | GI50 [6] | GI50 [7] | GI50 [8] | GI50 [9] | GI50 [10] | GI50 [11] | GI50 [12] | GI50 [13] | GI50 [14] | GI50 [15] | GI50 [16] | GI50 [17] | GI50 [18] | GI50 [19] | GI50 [20] |
| --- | --- | --- | --- | --- | --- | --- | --- | --- | --- | --- | --- | --- | --- | --- | --- | --- | --- | --- | --- | --- |
| C/C(=C\CBr)CCC(Br)C(C)(C)Br (stereo not given) | > 100 µM (inactive) | > 100 µM (inactive) | > 100 µM (inactive) | > 100 µM (inactive) | > 100 µM (inactive) | > 100 µM (inactive) | > 100 µM (inactive) | > 100 µM (inactive) | > 100 µM (inactive) | > 100 µM (inactive) | > 100 µM (inactive) | > 100 µM (inactive) | > 100 µM (inactive) | > 100 µM (inactive) | > 100 µM (inactive) | > 91.8 µM (inactive) | > 100 µM (inactive) | > 100 µM (inactive) | > 100 µM (inactive) | > 100 µM (inactive) |
| C[C@H](CCCOS(C)(=O)=O)[C@H]1CC[C@H]2[C@@H]3CC[C@@H]4C[C@H](OS(C)(=O)=O)CC[C@]4(C)[C@H]3CC[C@]12C | 22.3 µM (inactive) | 28.2 µM (inactive) | 22.5 µM (inactive) | 0.118 µM (active) | 31.8 µM (inactive) | 30.1 µM (inactive) | 26.4 µM (inactive) | > 100 µM (inactive) | 16.6 µM (inactive) | 21.4 µM (inactive) | 39.3 µM (inactive) | 14.5 µM (inactive) | 52 µM (inactive) | 60.1 µM (inactive) | 27.5 µM (inactive) | 31.8 µM (inactive) | 24.8 µM (inactive) | 46.7 µM (inactive) | 22.8 µM (inactive) | 34 µM (inactive) |
| COc1ccc2cc(NC(=O)N/N=C\c3ccc([N+](=O)[O-])cc3)ccc2c1 | 53 µM (inactive) | 81.8 µM (inactive) | 19.5 µM (inactive) | 39.5 µM (inactive) | 33.5 µM (inactive) | 23.7 µM (inactive) | 29.9 µM (inactive) | > 100 µM (inactive) | 22.9 µM (inactive) | 40.5 µM (inactive) | 45.9 µM (inactive) | 21.8 µM (inactive) | 20.4 µM (inactive) | 60.3 µM (inactive) | 20.4 µM (inactive) | 21.3 µM (inactive) | 49.1 µM (inactive) | 42.2 µM (inactive) | 20.9 µM (inactive) | 17.1 µM (inactive) |
| O=c1ccs[nH]1 | 46.8 µM (inactive) | 3.37 µM (inactive) | 17 µM (inactive) | 16.7 µM (inactive) | 11.2 µM (inactive) | 24.2 µM (inactive) | 8.36 µM (inactive) | 4.53 µM (inactive) | 3.8 µM (inactive) | 8.17 µM (inactive) | 16.3 µM (inactive) | 12.7 µM (inactive) | 7.96 µM (inactive) | 28.3 µM (inactive) | 32.1 µM (inactive) | 16.9 µM (inactive) | 3.81 µM (inactive) | 8.91 µM (inactive) | 16.4 µM (inactive) | 7.21 µM (inactive) |
| CC(C)=CCCC(C)CCOS(=O)C(F)(F)F (stereo not given) | 20.8 µM (inactive) | 10.4 µM (inactive) | 70.1 µM (inactive) | 18.7 µM (inactive) | 5.12 µM (inactive) | 12.8 µM (inactive) | 34.7 µM (inactive) | 2.58 µM (inactive) | 2.58 µM (inactive) | 11.2 µM (inactive) | 11 µM (inactive) | 6.78 µM (inactive) | 1.89 µM (inactive) | 16.9 µM (inactive) | 22.1 µM (inactive) | 20.5 µM (inactive) | 43.7 µM (inactive) | 19.5 µM (inactive) | 8.81 µM (inactive) | 13.1 µM (inactive) |
| CCS(=O)(=O)CCn1c(=O)c2c(ncn2C)n(C)c1=O | > 100 µM (inactive) | > 100 µM (inactive) | > 100 µM (inactive) | > 100 µM (inactive) | > 100 µM (inactive) | > 100 µM (inactive) | > 100 µM (inactive) | > 100 µM (inactive) | > 100 µM (inactive) | > 100 µM (inactive) | > 100 µM (inactive) | > 100 µM (inactive) | > 100 µM (inactive) | > 100 µM (inactive) | > 100 µM (inactive) | > 100 µM (inactive) | > 100 µM (inactive) | 45.4 µM (inactive) | > 100 µM (inactive) | > 100 µM (inactive) |
| CC[C@@]1(OC(=O)CCC(=O)O)C(=O)OCc2c1cc1n(c2=O)Cc2cc3ccccc3nc2-1 | 0.216 µM (active) | 1.36 µM (inactive) | 0.0139 µM (active) | 1.29 µM (inactive) | 0.366 µM (active) | 0.541 µM (active) | 0.0287 µM (active) | < 0.01 µM (active) | 0.0442 µM (active) | 0.91 µM (active) | 0.363 µM (active) | 0.137 µM (active) | 0.257 µM (active) | 1.85 µM (inactive) | 0.0519 µM (active) | 0.104 µM (active) | 0.065 µM (active) | 0.254 µM (active) | 0.0187 µM (active) | 0.0583 µM (active) |
| CCOC(=O)CNC(=O)C(CCC(=O)NO)NC(=O)CCC(N)C(=O)O (stereo not given) (γGlu-Glu(NHOH)-Gly-OEt; configuration not given here) | > 100 µM (inactive) | > 100 µM (inactive) | > 100 µM (inactive) | > 100 µM (inactive) | > 100 µM (inactive) | > 100 µM (inactive) | > 100 µM (inactive) | > 100 µM (inactive) | > 100 µM (inactive) | > 100 µM (inactive) | > 100 µM (inactive) | > 100 µM (inactive) | > 100 µM (inactive) | > 100 µM (inactive) | > 100 µM (inactive) | > 100 µM (inactive) | > 100 µM (inactive) | > 100 µM (inactive) | > 100 µM (inactive) | > 100 µM (inactive) |
